We go through 8 compounds from patent publication US10414797B2, “Gelatinase inhibitors and use thereof” (Iproteos S.L, priority 2015, dated 2019).

Holding throughout (type): biochemical
Experiment [1] addresses MMP-2 (Homo sapiens (Human), UniProt P08253). Briefly: MMP-2 inhibition assay (fluorimetric, DQ gelatin substrate). As to conditions: recombinant MMP-2 (CHO cells) 85 ng/mL, DQ gelatin 50 μg/mL, 2 hours at room temperature, pH 7.6. As for the experimental part:
(§1) All the experiments were done in 1× reaction buffer, which was obtained from a 10× reaction buffer solution. The content of the 10× reaction buffer was: 50 mL of 0.5 M Tris-HCl, 1.5 M NaCl, 50 mM CaCl2 and 2 mM sodium azide at pH 7.6. To obtain the 1× reaction buffer 4 mL of the 10× reaction buffer were diluted in 36 mL of H2O.
Recombinant MMP-2 expressed in Chinese hamster ovary (CHO) cells was obtained from Merck-Millipore (catalog number PF023-5UG). DQ gelatin from pig skin fluorescein conjugated (MMP-2 substrate) was obtained from Life Technologies (catalog number E12055).
Preparation of the MMP-2 for the activity assay: MMP-2 was provided as a stock solution (0.1 mg/mL). The enzyme was diluted in 1× reaction buffer to a final concentration of 5 μg/mL.
(§2) Preparation of the DQ gelatin (substrate) solution for the activity assay: the solid form of the substrate was dissolved in water in order to obtain a stock solution of 1 mg/mL.
(§3) Procedure: The enzymatic assays were performed in 96-well microtiter plate, which allowed simultaneous monitoring of multiple reactions. For each reaction, 86.3 μL of 1× reaction buffer (pH 7.6), 1.7 μL of MMP-2 (final concentration 85 ng/mL) and 2 μL of the corresponding new compound were added to each well. A stock solution of new compound was prepared in DMSO (100 mM), and dilutions were prepared from this stock solution with DMSO. Finally, to the mixture contained in each well 10 μL of the substrate were added (final concentration 50 μg/mL). The reaction was incubated for 2 hours at room temperature in an orbital shaker (100 rpm).
(§4) The inhibitory activity of the new compound was measured fluorimetrically. The excitation and emission wavelengths were 483 and 525 nm, respectively.
(§5) Inhibitory activity at several concentration points (ranging from 100 pM to 200 μM MMP) were measured for each compound. The inhibitory activity on MMP-2 and MMP-9 was calculated according to eq 1. For each new compound, the fluorescence in the presence (a) and in the absence (b) of the corresponding MMP was measured. The maximum fluorescence (0% inhibitory activity) was obtained from a sample of the corresponding MMP in the absence of inhibitory compounds. To estimate the inhibitory potency of the novel compounds, activities were plotted against the log concentration of the compound, adjusting to a sigmoid curve using GraphPad Prism software, and the IC50 value, defined as the concentration of compound required to inhibit 50% of the corresponding MMP activity, was determined from resulting curve.
(§6) a corresponds to fluorescence intensity in the presence of substrate+test compound+MMP
(§7) b corresponds to the fluorescence intensity in the presence of substrate+tested compound
(§8) c corresponds to the fluorescence intensity in the presence of substrate+MMP
(§9) d corresponds to the fluorescence intensity of the presence of substrate

Experiment [2] deals with MMP-9 (Homo sapiens, UniProt P14780). Put plainly: MMP-9 inhibition assay (fluorimetric, DQ gelatin substrate). As to conditions: recombinant MMP-9 (Merck-Millipore for examples 1 to 9 and comparative examples; Enzo for examples 10 to 16), DQ gelatin 50 μg/mL, 4 hours at room temperature, pH 7.6. As for the experimental part: as §1
Sequence of MMP-9 (P14780 107-707 limits assumed): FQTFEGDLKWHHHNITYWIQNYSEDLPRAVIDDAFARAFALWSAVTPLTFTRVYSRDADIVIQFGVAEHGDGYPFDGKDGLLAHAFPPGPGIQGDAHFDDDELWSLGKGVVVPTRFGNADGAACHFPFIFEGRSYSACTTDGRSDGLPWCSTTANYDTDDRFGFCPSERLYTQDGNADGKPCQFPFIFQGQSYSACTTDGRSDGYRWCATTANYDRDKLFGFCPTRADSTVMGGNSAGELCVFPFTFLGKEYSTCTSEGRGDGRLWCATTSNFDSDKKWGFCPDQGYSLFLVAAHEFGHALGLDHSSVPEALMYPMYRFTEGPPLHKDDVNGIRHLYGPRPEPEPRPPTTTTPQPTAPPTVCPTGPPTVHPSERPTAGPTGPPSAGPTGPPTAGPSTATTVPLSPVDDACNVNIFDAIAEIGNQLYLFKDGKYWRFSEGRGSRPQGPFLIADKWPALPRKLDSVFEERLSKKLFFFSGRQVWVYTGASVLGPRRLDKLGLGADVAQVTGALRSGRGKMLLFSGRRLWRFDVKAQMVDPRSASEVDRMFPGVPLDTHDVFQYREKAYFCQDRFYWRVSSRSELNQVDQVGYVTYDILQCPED
Recombinant MMP-9 expressed was obtained from Merck-Millipore (catalog number PF140-5UG, used in examples 1 to 9 and comparative examples) and Enzo (catalog number-SE360-0010, used in examples 10 to 16). DQ gelatin from pig skin fluorescein conjugated (MMP-9 substrate) was obtained from Life Technologies (catalog number E12055).
Preparation of the MMP-9 for the activity assay: MMP-9 was provided as a stock solution (0.1 mg/mL). The enzyme was diluted in 1× reaction buffer to a final concentration of 5 μg/mL.
as §2
as §3, with “reaction, 84.6” for “reaction, 86.3”, “7.6), […]” for “7.6), 1.7”, “of MMP-9” for “of MMP-2”, “for 4” for “for 2”
as §4, §5, §6, §7, §8, §9

In experiment [3] the target is MMP-7 (Homo sapiens (Human), UniProt P09237). Briefly: MMP-7 inhibition assay (fluorogenic peptide substrate). The following applies: recombinant MMP-7 8.3 nM, Mca-PLGL-Dpa-AR-NH2 10 μM, 4 hours at room temperature; tested at 1, 10, 100 and 200 μM. As for the experimental part: as §1
Sequence of MMP-7 (P09237 95-267): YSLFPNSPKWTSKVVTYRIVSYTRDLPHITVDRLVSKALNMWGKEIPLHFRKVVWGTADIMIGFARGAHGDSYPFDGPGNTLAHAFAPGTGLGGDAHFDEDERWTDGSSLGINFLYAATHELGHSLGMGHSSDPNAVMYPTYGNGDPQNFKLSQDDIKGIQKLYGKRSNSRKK
Recombinant MMP-7 expressed in E. Coli was obtained from Merck-Millipore (catalog number 44270). Mca-PLGL-Dpa-AR-NH2 (fluorogenic peptide substrate) was obtained from R&D Systems (catalog number ES001).
Preparation of the MMP-7 for the activity assay: MMP-7 was provided as a stock solution (2.1 mg/mL). The enzyme was diluted in water to a final concentration of 0.005 mg/mL.
MMP-7 peptide substrate was provided as a solid (1 mg). A 4 mM stock solution of the substrate in DMSO was obtained by adding 214.7 μL of DMSO. After which, a 100 μM solution of substrate was prepared in 1× reaction buffer.
Procedure: The enzymatic assays were performed in 96-well microtiter plate, which allowed simultaneous monitoring of multiple reactions. For each reaction, 84.6 μL of 1× reaction buffer (pH 7.6), 3.4 μL of MMP-7 (final concentration 8.3 nM) and 2 μL of the corresponding new compound were added to each well. A stock solution of new compound was prepared in DMSO (100 mM), and dilutions were prepared from this stock solution with DMSO. Finally, to the mixture contained in each well 10 μL of the substrate were added (final concentration 10 μM). The reaction was incubated for 4 hours at room temperature in an orbital shaker (90 rpm).
The inhibitory activity of the new compound was measured fluorimetrically. The excitation and emission wavelengths were 320 and 405 nm, respectively.
Inhibitory activity at several concentration points (1, 10, 100 and 200 μM) were measured for each compound. The inhibitory activity on MMP-1, MMP-3 and MMP-7 was calculated according to eq 1 and The IC50 value was calculated as explained above for MMP-2 and MMP-9.

Where a SMILES comes first, the peptide text is derived from it. [ ]: non-standard residue; d: D form. The star is where a group is joined. ξ: configuration not given here. Pro(trans-4-F) = O=C(O)[C@@H]1C[C@@H](F)CN1; Benzoyl(3,5-F2) = O=C(c1cc(F)cc(F)c1)*; NMeIle(3ξ) = CCC(C)[C@H](NC)C(=O)O; NMeF = CN[C@@H](Cc1ccccc1)C(=O)O; NMeA = CN[C@@H](C)C(=O)O; Dab = NCC[C@H](N)C(=O)O; Hexanoyl = CCCCCC(=O)*; Bz = O=C(c1ccccc1)*; NHOH = ON* Where only a bound is given, the exact number is not on record here.

As usually defined, the IC50 is the point on the concentration scale where inhibition reaches its midpoint.

Sequence of MMP-2 (P08253 110-660): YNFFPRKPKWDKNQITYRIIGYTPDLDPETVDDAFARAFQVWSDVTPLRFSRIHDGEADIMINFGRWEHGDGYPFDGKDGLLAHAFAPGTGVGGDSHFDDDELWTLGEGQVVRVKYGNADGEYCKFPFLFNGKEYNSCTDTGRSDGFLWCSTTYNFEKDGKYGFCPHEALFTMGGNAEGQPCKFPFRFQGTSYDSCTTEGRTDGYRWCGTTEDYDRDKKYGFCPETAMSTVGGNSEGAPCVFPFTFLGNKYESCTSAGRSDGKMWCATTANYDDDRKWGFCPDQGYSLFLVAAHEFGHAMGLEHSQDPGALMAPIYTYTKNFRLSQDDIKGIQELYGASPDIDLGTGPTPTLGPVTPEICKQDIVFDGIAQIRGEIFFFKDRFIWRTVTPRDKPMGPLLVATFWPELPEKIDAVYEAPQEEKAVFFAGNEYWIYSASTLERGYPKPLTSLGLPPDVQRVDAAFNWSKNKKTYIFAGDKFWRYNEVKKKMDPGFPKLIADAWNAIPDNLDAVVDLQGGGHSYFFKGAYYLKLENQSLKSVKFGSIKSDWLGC

Take `CCC(C)[C@@H](C(=O)N[C@@H](CCNC(=O)c1cc(F)cc(F)c1)C(=O)NO)N(C)C(=O)[C@@H]1CCCN1C(=O)[C@H](Cc1ccccc1)N(C)C(C)=O` (stereo partly drawn) [Example 11, (2 S)-1-[(2S)-2-[acetyl(methyl)amino]-3-phenyl-propanoyl]-N-[(1S)-1-[[(1S)-3-[(3,5-difluorobenzoyl)amino]-1-(hydroxycarbamoyl)propyl]carbamoyl]-2-methyl-butyl]-N-methyl-pyrrolidine-2-carboxamide] (Ac-[NMeF]P[NMeIle(3ξ)][Dab](Benzoyl(3,5-F2))-{NHOH}): the IC50 was determined as 174 nM in experiment [1], 71 nM in experiment [2] and 20100 nM in experiment [3].

`CCCCCC(=O)N1CCC[C@H]1C(=O)N(C)[C@H](C(=O)N[C@@H](CCNC(=O)c1ccccc1)C(=O)NO)C(C)CC` (stereo partly drawn) [Example 15, (2S)—N-[(1S)-1-[[(1S)-3-benzamido-1-(hydroxycarbamoyl)propyl]carbamoyl]-2-methyl-butyl]-N-methyl-1-hexanoyl-pyrrolidine-2-carboxamide] (Hexanoyl-Pro-[NMeIle(3ξ)]-[Dab](Bz)-{NHOH}): the results for the 50% inhibitory concentration (IC50) in experiment [1], in experiment [2] and in experiment [3] were 285 nM, 702 nM and 41200 nM, respectively.

As for `CCCCCCCC(=O)N1CCC[C@H]1C(=O)N(C)[C@H](C(=O)N[C@@H](CCNC(=O)c1cc(F)cc(F)c1)C(=O)NO)C(C)CC` (stereo partly drawn) [Example 6, (2S)—N-[(1S)-1-[[(1S)-3-[(3,5-difluorobenzoyl)amino]-1-(hydroxycarbamoyl)propyl]carbamoyl]-2-methyl-butyl]-N-methyl-1-octanoyl-pyrrolidine-2-carboxamide], the IC50 worked out at 400 nM in experiment [1], 733 nM in experiment [2] and 52600 nM in experiment [3].

With `CCCCCC(=O)N1CC(F)(F)C[C@H]1C(=O)N(C)[C@H](C(=O)N[C@@H](CCNC(=O)c1cc(F)cc(F)c1)C(=O)NO)C(C)CC` (stereo partly drawn) [Example 7, (2S)—N-[(1S)-1-[[(1S)-3-[(3,5-difluorobenzoyl)amino]-1-(hydroxycarbamoyl)propyl]carbamoyl]-2-methyl-butyl]-4,4-difluoro-1-hexanoyl-N-methyl-pyrrolidine-2-carboxamide], the results for the IC50 in experiment [1], in experiment [2] and in experiment [3] were 159 nM, 713 nM and 7710 nM, respectively.

`CCCC(CCC)C(=O)N1CCC[C@H]1C(=O)N(C)[C@H](C(=O)N[C@@H](CCNC(=O)c1cc(F)cc(F)c1)C(=O)NO)C(C)CC` (stereo partly drawn) [Example 8, (2S)—N-[(1S)-1-[[(1S)-3-[(3,5-difluorobenzoyl)amino]-1-(hydroxycarbamoyl)propyl]carbamoyl]-2-methyl-butyl]-N-methyl-1-(2-propylpentanoyl)pyrrolidine-2-carboxamide]: the half-inhibitory concentration (IC50) amounted to 974 nM in experiment [1], 263 nM in experiment [2] and 4100 nM in experiment [3].

In the case of `CCCCCC(=O)N1C[C@H](F)C[C@H]1C(=O)N(C)[C@H](C(=O)N[C@@H](CCNC(=O)c1ccccc1)C(=O)NO)C(C)CC` (stereo partly drawn) [Example 16, (2S,4R)—N-[(1S)-1-[[(1S)-3-benzamido-1-(hydroxycarbamoyl)propyl]carbamoyl]-2-methyl-butyl]-4-fluoro-N-methyl-1-hexanoyl-pyrrolidine-2-carboxamide] (Hexanoyl-[Pro(trans-4-F)]-[NMeIle(3ξ)]-[Dab](Bz)-{NHOH}), the IC50 in experiment [1] was less than 1 nM; in experiment [2] it was 10 nM; in experiment [3], 1000 nM.

Regarding `CCC(C)[C@@H](C(=O)N[C@@H](CCNC(=O)c1cc(F)cc(F)c1)C(=O)NO)N(C)C(=O)[C@@H]1CCCN1C(=O)[C@H](C)N(C)C(C)=O` (stereo partly drawn) [Example 12, (2 S)-1-[(2S)-2-[acetyl(methyl)amino]propanoyl]-N-[(1S)-1-[[(1S)-3-[(3,5-difluorobenzoyl)amino]-1-(hydroxycarbamoyl)propyl]carbamoyl]-2-methyl-butyl]-N-methyl-pyrrolidine-2-carboxamide] (Ac-[NMeA]P[NMeIle(3ξ)][Dab](Benzoyl(3,5-F2))-{NHOH}), the results for the half-maximal inhibitory concentration (IC50) in experiment [1], in experiment [2] and in experiment [3] were 21 nM, 136 nM and 14100 nM, respectively.

As for `CCCCCC(=O)N1CCC[C@H]1C(=O)N(C)[C@H](C(=O)N[C@@H](CCNC(=O)c1cc(F)cc(F)c1)C(=O)NO)C(C)CC` (stereo partly drawn) [Example 3, (2S)—N-[(1S)-1-[[(1S)-3-[(3,5-difluorobenzoyl)amino]-1-(hydroxycarbamoyl)propyl]carbamoyl]-2-methyl-butyl]-1-hexanoyl-N-methyl-pyrrolidine-2-carboxamide], the half-inhibitory concentration (IC50) in experiment [1] amounted to 81 nM; in experiment [2], 395 nM; in experiment [3], 6610 nM.
